# Assay results from US20250263771A1, “SYSTEM AND METHODS TO MEASURE CELL VIABILITY IN HIGH THROUGHPUT VIA CONTINUOUS GEOMETRY” (priority 2022, published 2025).
# Like-named read-outs stand apart in the source and are kept apart here.
# Columns and labels:
# [1] = system: promoters of genes downstream of lexA (pol, dinB, dinG, yjiH, lexA)
# Excerpt: (§1) Filamentation is a classic hallmark of SOS activation and increases in ROS are an established SOS activator. Therefore, Applicants wondered if DPI was activating SOS. Applicants examined the promoter activity of genes downstream of lexA using the PEC GFP-promoter library. LexA is a master transcriptional repressor of genes in the SOS regulon such as pol, dinB, dinG, and yjiH, and is auto-catalytically degraded by activated recA.
# (§2) Strains and growth conditions: E. coli strain BW25113 was used unless otherwise noted in the text. This strain was acquired from the Yale Coli Genetic Stock Center. E. coli was grown in LB (Sigma Aldrich) at 37° C. in a shaking incubator. B. subtilis strain W168 was a kind gift from the Garner lab and was grown in LB at 37° C. in a shaking incubator. P. putida strain KT2440 was a kind gift from Jacob Fenster and was grown in LB at 30° C. in a shaking incubator. S. typhimurium strain SL1344 was a kind gift from the Corrie Detweiler and was grown in LB at 37° C. in a shaking incubator. S. cerevisiae strain BY4741 was a kind gift from Roy Parker and was grown in YEPD at 30° C. in a shaking incubator. P. aeruginosa strain PA01 was a kind gift from the Zemer Gitai and was grown in LB at 37° C. in a shaking incubator. Knockouts were selected from the Keio collection (Dharmacon). The PEC promoter library in E. coli was acquired from Dharmacon (PEC3877).
# (§3) Microscopy measurements: For all microscopy experiments, cells from overnight cultures were diluted 1:100 in minimal media (PMM) and shaken for 2 hours at 37° C. to ensure cells had exited lag phase. After 2 hours of growth, 2 μL of dilute cell culture was added to the top of a cooled, 200 μL 2% low melt agarose pad with CellROX dye (5 μM). The agarose pad was molded to fit in 96-well square bottom plates (Brooks Automation, MGB096-1-2-LG-L). After 10 minutes of drying, the pad with affixed cells was inverted and pressed into the bottom of an imaging plate. Fields of view (FOV) were selected manually on the microscope. After FOVs were selected and before the imaging started, the drug was added on top as done previously.
# [2] = system: cytoplasmic superoxide (ROS) in E. coli; assay: Single-cell CellROX fluorescence (ROS levels) over time; assay type: cell-based, Escherichia coli; conditions: for effect on ROS (CellROX signal) over time: lethal dose, compared to untreated control
# Procedure: as §3
# [3] = system: E. coli knockout mutants
# Procedure: as §2
# (§4) For stationary phase treatments, bacterial cells were grown overnight (≥16 hours) in a shaking incubator (180 RPM). For P. putida only, cells were grown for 2 days. Upon entering the stationary phase, cells were distributed into a 96 well flat-bottom plates with 100 μL of cells per well. Drug treatments at 1000× were plated into a separate 96 well-round bottom plate. A 100 nL pin transfer was used to dilute the drug plate into the cell plate at a 1:1000 ratio. This plate was then placed into a shaking incubator for the experimental time. To measure antibiotic treatments in the exponential phase, overnight culture was diluted 1:1000 into fresh LB. This culture was then placed into the incubator for 2 hours. After this incubation, the cells were then distributed to the 96 well plate followed by drug treatment.
# (§5) Embedding for GVA: The goal for embedding was to have a uniformly mixed sample in liquid hydrogel that would quickly solidify the 3D mold. Applicants used 0.5% agarose as a convenient hydrogel that would solidify quickly and prevent cell motility once solidified.
# [4] = system: S. typhimuirium; conditions: DPI crossed with ciprofloxacin or gentamicin
# Procedure: as §2
# [5] = system: E. coli; conditions: DPI and ciprofloxacin, optical density over 8 hours
# Excerpt: FIG. 6A-I: DPI generates ROS, activates the SOS response, and antagonizes ciprofloxacin. a) Median, single-cell CellROX signal as a function of time for DPI (blue), ciprofloxacin (orange), and an untreated control (yellow). b) Efficacy of DPI in aerobic and anaerobic conditions. […] Brightness and contrast is the same for all images. […] The dose response for the wild-type (WT) cells is depicted in green or purple, respectively. Shaded errorbars equal to the standard deviation in logspace between 3 replicates. […] Each square in the heatmap was the mean of duplicate conditions. Colorbar correspond to the log10 (CFUs/mL) for each dose combination. […] Optical density was measured for each condition over 8 hours and the integrated area under the growth curve (AUGC) is depicted (colorbar). i) Dose response curves for temporally staggered combinations. All treatments lasted for 24 hours total. Pretreated conditions were treated for 2 hours with a single drug followed by 22 hours with both drugs.
# To test for antagonism, Applicants measured viability in a time-resolved, checkerboard assay using GVA (FIGS. 6f, 21). In the checkerboard assay, DPI was combined with either ciprofloxacin or gentamicin across a 6×6 dose matrix. The ease of GVA enabled sampling the checkerboard over time, resulting in a complete pharmacokinetic profile of the drug-drug interaction.
# [6] = system: stationary phase E. coli; conditions: for increase in viability as compared to either drug alone: 24 hours treatment
# Procedure: as §4, §5
# [7] = system: E. coli, stationary phase and exponential phase; assay: GVA viability screen of an 80-compound drug library, 96 well format; assay type: cell-based, Escherichia coli; conditions: treated for 4 hours, duplicate
# Procedure: FIGS. 27A-B: Screen of compounds that affect viability in exponential and stationary phase using data from a GVA assay in 96 well format drug testing. The antibiotic potential of a drug library (80 compounds) was tested against exponential and stationary phase bacteria in duplicate. (A) Viability reduction of compounds in exponential (top) and stationary (bottom) phase cells. Each x is the mean of 2 biological replicates. (B) Scatter plot of the viability screen comparing exponential and stationary phase activity. Each blue dot represents the mean of 2 replicates of a compound treatment. Red dots represent DMSO controls. The dashed lines represent 3 times the standard deviation of the negative controls. Screen was performed with E. coli with both stationary phase and exponential phase bacterial populations. Both phases were screened in duplicate. 80 compounds and 16 controls were screened. Cells in stationary and exponential phase were treated with the compound for 4 hours, followed by casting into pipet tips using the GVA protocol.
# [8] = system: E. coli; conditions: 4 hours of treatment, less than 10 μg/mL DPI
# Excerpt: as §1, §3
# [9] = system: E. coli strain BW25113; assay: Geometric Viability Assay (GVA) of drug-treated stationary and exponential E. coli cultures; assay type: cell-based, Escherichia coli; conditions: for activity in dose response, stationary versus exponential cultures (follow up of Enzo library hits): stationary and exponential cultures; for activity in aerobic versus anaerobic environments: stationary phase cells; for resistance of stationary phase cells compared with exponentially growing cells: 3 antibiotics, 6 concentrations, 5 durations; for reduction in viability: within an hour
# Excerpt: Previous studies have found slow growth is a non-inheritable form of antibiotic tolerance buying time for viable cells to develop genetic resistance. Slow-growing cells commonly have reduced metabolic activity and DNA replication as compared to exponentially growing cells. As a result, slow-growing cells are refractory to antibiotics targeting DNA synthesis (fluoroquinolones), protein translation (aminoglycosides), and cell wall biogenesis (beta-lactams). Growth-dependent tolerance can only be observed by measuring viability but the tedium and cost of the drop CFU assay limits extensive profiling. Using GVA, Applicants directly compared the viability of exponentially growing cells and stationary phase cells to different doses of three antibiotics for varying amounts of time. In total, Applicants tested 3 antibiotics at 6 different concentrations for 5 different durations against stationary and exponential cells, in duplicate, for a total of 360 viability measurements (FIG. 5a,b).
# To explore the GVA technique's potential for high throughput viability measurements, Applicants screened the ICCB Enzo Bioactive library (469 compounds) against stationary and exponentially growing cultures (FIG. 5c,d). […] The viability of BW25113 E. coli treated with the Enzo library was measured in both exponential and stationary phase. Including controls and removing pipette errors, 2267 conditions were measured. […] Mitomycin C is a known antibiotic acting through DNA cross-linking. […] Phentolamine is an α-adrenergic receptor antagonist.
# as §4, §5
# [10] = 24 hours total, 2 hours single drug then 22 hours both drugs
molecule,measurement,setting,value
"c1ccc2c(c1)[I+]c1ccccc1-2 [DPI, diphenyleneiodonium]","dinB, dinG, and yjiH promoter activity",[1],DPI-dependent increase
same,pol promoter activity,[1]; compared to a ribosomal protein control (rrnB),"persistent, dose-dependent induction"
same,time to increased lexA promoter activity after DPI addition,[1]; lexA promoter,≤ 90 min
same,dose giving the highest promoter activity,"[1]; pol promoter, dose where filamentation was observed",3 µg/mL
same,ROS after the initial decrease,[2]; lethal DPI dose,rapid spike in ROS
same,time to ROS nadir after the drug was added,[2]; lethal DPI dose,around 75 minutes
same,effect on ROS (CellROX signal) over time,[2],substantially decreased ROS
same,"potency in knockouts of other DNA repair enzymes, redox repair enzymes, or ROS scavengers",[3]; either growth phase,did not substantially change the potency
same,susceptibility of recA knockouts,"[3]; recA knockout, stationary and exponential phases",more susceptible to DPI
same,potency in yedZ and fre knockouts,[3]; stationary cells,modestly increased the potency
same,antagonism of ciprofloxacin and gentamicin,[4],also observed
same,antagonism in growth inhibition assay,[5],not observed
same,effect of 2 hours DPI pretreatment before adding ciprofloxacin,[6]; [10],further increased protection
same,effect of 2 hours ciprofloxacin pretreatment before DPI,[6]; [10],reduced DPI's antagonistic effects
same,increase in viability as compared to either drug alone,[6]; DPI combined with ciprofloxacin,"1,000 fold"
same,increase in viability as compared to either drug alone,[6]; DPI combined with gentamicin,"1,000 fold"
same,activity in viability screen,[7],bactericidal activity
same,cell morphology,[8],formation of bacterial filaments
same,"activity in dose response, stationary versus exponential cultures (follow up of Enzo library hits)",[9],active against both stationary and growing cultures
same,efficacy on adding a ROS scavenger (ascorbic acid),[9]; increasing concentrations of ascorbic acid,reduced DPI efficacy
same,viability at intermediate concentrations,"[9]; intermediate DPI concentrations, GVA",maintained viability
same,activity in aerobic versus anaerobic environments,[9]; 24 hours,less active in anaerobic cultures
Cc1cccc(CCN2CCC(C(=O)c3ccc(NS(C)(=O)=O)cc3)CC2)n1 [E-4031],"activity in dose response, stationary versus exponential cultures (follow up of Enzo library hits)",[9],did not have any dose-dependent effect on viability
CC1(C)S[C@@H]2[C@H](NC(=O)C(C(=O)O)c3ccccc3)C(=O)N2[C@H]1C(=O)O (some centres unmarked) [carbenicillin],resistance of stationary phase cells compared with exponentially growing cells,[9]; GVA,more resistant
same,change in viable cells,"[9]; exponential cells, 10 μg/mL, after 24 hours treatment",increase in viable cells
same,change in number of colonies,"[9]; exponential cells, 10 μg/mL, first 6 hours",no change in the number of colonies
same,decrease in viability,"[9]; exponential cells, 100 μg/mL, 24 hours","10,000 fold"
same,decline in viability,"[9]; stationary cells, 100 μg/mL, 24 hours",< 10 fold
O=C(O)c1cn(C2CC2)c2cc(N3CCNCC3)c(F)cc2c1=O [ciprofloxacin],effect on ROS (CellROX signal) over time,[2],monotonically increasing levels of ROS
same,pharmacodynamic profile,"[9]; 10 μg/mL, initial killing within an hour, stable through 6 hours, second phase by 24 hours",biphasic pharmacodynamic profile
same,resistance of stationary phase cells compared with exponentially growing cells,[9]; GVA,more resistant
same,reduction in viability,"[9]; exponentially growing cultures, 10 μg/mL",10 fold
same,reduction in viability,"[9]; stationary cultures, 10 μg/mL",10 fold
same,activity in aerobic versus anaerobic environments,[9]; 24 hours,less active in anaerobic cultures
CO[C@@]12[C@H](COC(N)=O)C3=C(C(=O)C(C)=C(N)C3=O)N1C[C@@H]1N[C@@H]12 [mitomycin C],activity in viability screen,[7],bactericidal activity
same,"activity in dose response, stationary versus exponential cultures (follow up of Enzo library hits)",[9],more active against exponentially growing cells compared to cells in stationary phase
NC(=Nc1ccccc1)NC(=O)c1nc(Cl)c(N)nc1N [phenamil],"activity in dose response, stationary versus exponential cultures (follow up of Enzo library hits)",[9],did not have any dose-dependent effect on viability
Cc1ccc(N(CC2=NCCN2)c2cccc(O)c2)cc1 [phentolamine],sensitivity of stationary versus exponentially growing cells,[9]; high concentrations (20 μg/mL),stationary cells were more sensitive
gentamicin,resistance of stationary phase cells compared with exponentially growing cells,[9]; GVA,more resistant
same,activity in aerobic versus anaerobic environments,[9]; 24 hours,less active in anaerobic cultures
same,reduction in stationary phase cell viability,"[9]; stationary phase, 10 μg/mL, full 24 hours",> 10 fold
